Assay results published in ChEMBL document CHEMBL3507680, “University of Dundee, Gates Library screen for HepG2 cell viability”.

Experiment: Human HepG2 cell viability assay in 384 well format
Format: toxicity, cell-based
Set-up: dose 125 nL, time 70.5 hour; concentration not given beside the values
Details: HepG2 cells, read-out: Inhibition

SMILES	cytotoxicity at 70.5 h
Cc1c(NC(C)C(C)C)cccc1C(=O)NCc1cnn(C)c1 (stereo not drawn)	-2.68%
CC1CCN(C(=O)NCCc2cc(F)ccc2F)C1 (stereo not drawn)	-11.9%
Cn1nc2c(cc1=O)CN(Cc1coc(-c3ccc(F)cc3)n1)CC2	14.8%
CCC(C)NS(=O)(=O)c1ccc(C(=O)NC2(C#N)CCC2)cc1 (stereo not drawn)	39.3%
COc1cccc(OCC(=O)NS(=O)(=O)c2ccc(Br)s2)c1	0.256%
O=C1[C@@H]2CN(c3ncccc3Cl)C[C@]2(C(=O)O)CN1CC1CC1	-7.05%
CCOc1ccnc(NCCc2nc(C)cc(=O)[nH]2)n1	-2.38%
O=C(c1ccc(Oc2cccnc2)cc1)N1CCN(CCO)CC1	-18.5%
COc1ccccc1CCNC(=O)CNC1CCc2nc(C)nn2C1 (stereo not drawn)	-0.271%
O=C(CNc1cc(-n2cnnn2)ccc1F)Nc1cc(F)ccc1F	-96.7%
Cn1nccc1C(=O)N1CCOC(Cc2cccnc2)C1 (stereo not drawn)	16%
COc1cccc(SCCCn2cnc3c(N)ncnc32)c1	6.56%
CC(C)(NC(=O)Cc1ccccc1F)C(C)(C)C(=O)O	-0.854%
CN(C)c1ccccc1CN1CCC(N2CCCC2=O)CC1	17.8%
Cc1cnc(CN(Cc2ccc(C#N)cc2F)C2CCN(C)C2)o1 (stereo not drawn)	-8.53%
Cc1[nH]ccc1C(=O)N1CCC(c2nnc(Cn3ccnc3)n2C)CC1	-11.8%
O=C(N1CCSCC1)C1(O)Cc2ccccc2C1	-2.54%
CCN(C)CC1CCN(C(=O)Nc2ccc(-c3csnn3)cc2)C1 (stereo not drawn)	-5.78%
CC(C)C1CN(c2nccc(N)n2)CCC(=O)N1Cc1ccc(F)cc1 (stereo not drawn)	-8.72%
CCc1cnc(CN(C(C)=O)C2CCN(CCc3ccccn3)C2)o1 (stereo not drawn)	1.82%
COCc1ncn2c1CN(S(=O)(=O)c1cccc(F)c1)CC2	-8.14%
COC(=O)Cn1nc(-c2ccccc2F)ccc1=O	19.4%
Cc1ccccc1CN(Cc1ccc(S(C)(=O)=O)cc1)CC(C)C	6.09%

SMILES	cytotoxicity at 70.5 h
O=C(NC[C@]12COC[C@H]1CN(Cc1cccnc1)C2)c1ccno1	-14.7%
Cc1cnn(CC(C)NCc2ccc(-n3cccn3)cc2)c1 (stereo not drawn)	30.2%
COc1cc(C2SCC(=O)Nc3ccsc32)cc(OC)c1O (stereo not drawn)	-4.76%
CCc1nn(C)c2[nH]nc(NC(=O)c3ccccc3COC)c12	-101%
c1ccc(Cc2nnc([C@H]3CCN(C4CCCCC4)C3)o2)cc1	1.09%
COCC(=O)N1CCC(C(=O)N(C)C(C)c2ccon2)CC1 (stereo not drawn)	-2.4%
O=c1cc(N2CCCCC2)cnn1CC(O)C(F)(F)F (stereo not drawn)	-8.52%
COc1ccc(S(=O)(=O)N2CCOC(C)(C(N)=O)C2)cc1 (stereo not drawn)	-3.24%
CN(CCc1ccccc1)Cc1nc2c(cnn2C)c(=O)[nH]1	-10.9%
COc1ccc(NC(=O)c2cc3c([nH]c2=O)CCCC3=O)c(OC)c1	-10.9%
Cn1cnnc1C1CCCN(C(=O)NCCNc2ccccn2)C1 (stereo not drawn)	-15.9%
Cc1nc(NC(=O)NC(CS(C)(=O)=O)c2ccccc2)sc1C (stereo not drawn)	-11.5%
CCSc1cc(C(=O)N(CC(F)F)C(C)C)ccn1	-3.2%
CCOc1ccc(Cl)c(C(=O)N2CCCC(N3CCCC3)C2)n1 (stereo not drawn)	-2.98%
c1csc(-c2nc(CN3CCCC3Cn3cccn3)co2)c1 (stereo not drawn)	-75.5%
CCC(C)Oc1cc(C(=O)Nc2nnc(C(C)C)[nH]2)ccn1 (stereo not drawn)	3.52%
Cc1csc(CNC(=O)NC2CCCN(S(C)(=O)=O)C2)n1 (stereo not drawn)	-12.3%
Cc1ccc(CN2CCC(O)(Cn3ccc4ncccc43)CC2)o1	-0.742%
CC(=O)N1CCC(N2CC[C@H](c3nc4cc(C)ccc4o3)C2)CC1	-1.07%
CCCN1CCCC2(CCN(C(=O)CCCn3cncn3)C2)C1=O (stereo not drawn)	-4.88%
CCn1c(CN(C)C)nnc1C1CCN(Cc2cccc(C#N)c2)CC1	-5.02%
Cc1nc(C)n(CC2CCCN2CC(=O)Nc2c(C)n[nH]c2C)n1 (stereo not drawn)	-1.18%
Cc1csc(CN2CC[C@H]3C[C@H](c4nc(C)no4)O[C@@H]3C2)n1	-10.4%

SMILES	cytotoxicity at 70.5 h
O=C(c1ccccn1)N1CCC2(CC1)CN(c1cncnc1)C(=O)CO2	-12.2%
COc1ccc(-c2noc(C(N)CCSC)n2)cc1OC (stereo not drawn)	-3.12%
CC(C)N(C)Cc1cnc2n1CCN(Cc1cccc(C#N)c1)C2	-13.7%
Cc1cnn(CCNCc2csc(-c3ccco3)n2)c1	18%
O=C1C(NCc2nnc3n2CCCC3)CCN1c1ccccc1Cl (stereo not drawn)	9.28%
Cc1nc(N2CCCC2C(=O)NCc2ccsc2)nc2ccccc12 (stereo not drawn)	-6.09%
CC(C)n1cc(S(=O)(=O)NCCc2nnc3ccccn23)cn1	5.41%
CC(C)C1=NOC2(CCN(S(C)(=O)=O)CC2)C1	-12.4%
Cc1nc(N(C)CCN(C)C)c2cnn(C)c2n1	19.9%
CN(C)S(=O)(=O)c1ccc(CN2CCCC2c2ccc[nH]2)o1 (stereo not drawn)	-5.46%
Cc1cccc(OC2CCN(c3ncc(C#N)cc3Cl)CC2)n1	-6.22%
O=C(Cn1ccnc1)N1C[C@@H]2CC[C@H](Oc3ccc(Cl)cc3)[C@@H]2C1	0.299%
COCCN1CCC2(CC1)CC(NC(=O)CC1CC1)c1ccccc1O2 (stereo not drawn)	-6.99%
Cc1ccc(C(N)c2cccc(S(C)(=O)=O)c2)c(C)c1 (stereo not drawn)	-7.42%
Cn1nc(C2CCCC2)c(-c2ccc3c(c2)OCO3)c1N	-8.03%
Cc1ccc(C)n1C(C)C(=O)N1CCCN(Cc2cscn2)CC1 (stereo not drawn)	-0.61%
CN1CCC(N(CCc2ccccc2)C(=O)COCC2CCCO2)CC1 (stereo not drawn)	-0.746%
CN(CC(F)(F)F)C(=O)c1ccc(F)c(NS(C)(=O)=O)c1	-1.16%
CN(Cc1nc2c(cnn2C)c(=O)[nH]1)Cc1ccc(F)cc1F	-10.6%
O=C1CC2(CCN(Cc3ccoc3)C2)CN1c1ccc2c(c1)OCO2 (stereo not drawn)	3.34%
CC(Cc1ccc(C(F)(F)F)cc1)C(=O)N1CCCS1(=O)=O (stereo not drawn)	-9.41%
CCS(=O)(=O)N1CC[C@H]2O[C@H](c3nc(C)no3)CC[C@H]21	-14.9%
CCCn1c(N2CCCC2)nc2c(C)nn(C)c2c1=O	-6.89%

SMILES	cytotoxicity at 70.5 h
c1cc(CO[C@@H]2CN(Cc3ccoc3)[C@@H]3CCCO[C@@H]32)ccn1	-16%
CN1CCCC1CNC(=O)CCCOCc1ccccc1 (stereo not drawn)	-3.14%
NCCO[C@H]1C[C@@H](O)C12CCN(C1Cc3ccccc3C1)CC2	34.2%
Cc1ccc(NC2CCN(C(=O)COCC3CC3)CC2)nn1	-2.64%
Cc1ccc(CN2CCn3cc(CN(C)Cc4ccco4)nc3C2)o1	0.0869%
CN1CCCC(N2CCN(c3cc(C(F)(F)F)ccn3)CC2)C1 (stereo not drawn)	-5.61%
CCOc1ccc2cc(C(=O)N3CCn4c(CC)nnc4C3)[nH]c2c1	-8.2%
COCc1cc(O)nc(C2CCCN(Cc3ccc(F)cc3)C2)n1 (stereo not drawn)	-0.561%
CCN(CC)[C@@H]1CN(Cc2cnn(C)c2)[C@@H]2COC[C@H]12	-5.97%
O=C(NCC1CC1)C1CCC2(CCN(C(=O)c3cccnc3)CC2)O1 (stereo not drawn)	-9.48%
Cc1cc(C(=O)NCCSC2CCCC2)no1	-1.92%
Cc1nn(C)cc1NC(=O)CC1CCN(C(=O)Cc2ccccc2)CC1	-4.98%
Cc1cc(NC(=O)CN2CCc3cncnc3C2)no1	25.7%
CC(Cn1ccnc1)NC(=O)C1(c2ccccc2)CC1 (stereo not drawn)	-10.4%
Cc1ccc(NC(=O)N2CCCC(O)C2)c(Br)c1 (stereo not drawn)	6.64%
Nc1cccnc1N1CCN(c2ccccc2)CC1	-0.724%
CCc1cnc(N2C[C@@H]3[C@@H](C(=O)N(C)C)CCS(=O)(=O)[C@@H]3C2)nc1	-7.5%
NC(=O)c1ccc(N2CCN(Cc3c(Cl)cncc3Cl)CC2)nc1	10.8%
O=C1[C@H]2CN(Cc3ccncc3)C[C@H]2CN1c1cncnc1	-0.121%
O=S(=O)(NCC1COCCO1)c1ccc(C2CCCCC2)cc1 (stereo not drawn)	-4.34%
Cn1cc(Cl)cc1C(=O)N1CCC2(CCCN(CC3CC3)C2=O)C1 (stereo not drawn)	24.1%
Cc1ncoc1C(=O)N1CCCC(c2ccc3c(N)nn(C)c3n2)C1 (stereo not drawn)	-4.28%
Cc1csc(CNC(=O)NCC(O)c2ccc(F)cc2)n1 (stereo not drawn)	-12.5%

SMILES	cytotoxicity at 70.5 h
CC(C)C1CCCN1CC(=O)NCc1ccc(OCC(N)=O)cc1 (stereo not drawn)	2.47%
CC(C)N1CCC2(CCCN(c3nccc(C(F)(F)F)n3)C2)CC1	-2.7%
CCCS(=O)(=O)N1CCCC(CCC(=O)N(C)CCc2ccccn2)C1 (stereo not drawn)	-0.331%
O=C(CC1CCN(CCN2CCCCC2)CC1)N1CCOCC1	-9.66%
CN(C)C(=O)COC[C@]12COC[C@H]1CN(CC1CCC1)C2	-6.61%
c1ccc(-c2nc(CNCC3CCCN3c3cccnn3)co2)cc1 (stereo not drawn)	12.4%
CC(C)COC(C)C(=O)NCc1ccccc1Cn1ccnc1 (stereo not drawn)	-7%
CCn1c(O)c(C(C)=O)c2cc(C)ccc21	-6.19%
CC1(C)CNC(=O)c2nc(C3CCCN(S(C)(=O)=O)C3)[nH]c2C1 (stereo not drawn)	-6.33%
O=S(=O)(N1CCCCC1)N1CCc2nc(C3CCNCC3)ncc2C1	-13.5%
COc1ccc(C(=O)O)cc1-c1cccc2c1CCNC2	-11.6%
CNC(=O)c1ccc(-n2c(COCC(=O)O)nc3c(C)cccc32)o1	-1.45%
O=C1CCCN1Cc1nnc2n1CCN(Cc1ccco1)C2	2.02%
Cc1cnn(CC2CCCN2C(=O)Cc2cn3ccsc3n2)c1 (stereo not drawn)	-6.38%
Cc1ccc(C(=O)N2CCC3(CC(N(C)c4ccncn4)C3)C2)cn1 (stereo not drawn)	-2.36%
OCCOc1cc(F)ccc1NCc1nc(-c2ccoc2)no1	8.3%
O=C1CC2(CCN(Cc3ccsc3)C2)CN1c1ccc2c(c1)OCO2 (stereo not drawn)	10.9%
Cn1cnnc1CN1CCC2(CCC(=O)N(Cc3ccccc3)C2)CC1	-4.83%
CC(C#N)CNS(=O)(=O)c1ccc(F)c(Br)c1 (stereo not drawn)	-7.42%
CCN1CCC(CC(=O)N[C@H](C(=O)O)c2cccc(F)c2F)CC1	-2.11%
NS(=O)(=O)N1CCc2ccc(NC(=O)Cc3ccc(F)cc3)cc21	6.47%
